From paper PMC9783183, “Substrate Recognition Properties from an Intermediate Structural State of the UreA Transporter” (International Journal of Molecular Sciences, 2022)
Where two headings read alike, the source gives them in different places.

Experiments:
UreA W82F = details: cited from earlier work; for affinity relative to wt (in words): allele W82F vs wt, ref [16]
UreA W84Y = target: T1, UreA W84Y (Aspergillus nidulans, UniProt Q5BGB2, W84Y); assay: [14C]-urea uptake in germinating conidiospores, UreA W84Y mutant
T1 sequence (Q5BGB2 1-693 W84Y): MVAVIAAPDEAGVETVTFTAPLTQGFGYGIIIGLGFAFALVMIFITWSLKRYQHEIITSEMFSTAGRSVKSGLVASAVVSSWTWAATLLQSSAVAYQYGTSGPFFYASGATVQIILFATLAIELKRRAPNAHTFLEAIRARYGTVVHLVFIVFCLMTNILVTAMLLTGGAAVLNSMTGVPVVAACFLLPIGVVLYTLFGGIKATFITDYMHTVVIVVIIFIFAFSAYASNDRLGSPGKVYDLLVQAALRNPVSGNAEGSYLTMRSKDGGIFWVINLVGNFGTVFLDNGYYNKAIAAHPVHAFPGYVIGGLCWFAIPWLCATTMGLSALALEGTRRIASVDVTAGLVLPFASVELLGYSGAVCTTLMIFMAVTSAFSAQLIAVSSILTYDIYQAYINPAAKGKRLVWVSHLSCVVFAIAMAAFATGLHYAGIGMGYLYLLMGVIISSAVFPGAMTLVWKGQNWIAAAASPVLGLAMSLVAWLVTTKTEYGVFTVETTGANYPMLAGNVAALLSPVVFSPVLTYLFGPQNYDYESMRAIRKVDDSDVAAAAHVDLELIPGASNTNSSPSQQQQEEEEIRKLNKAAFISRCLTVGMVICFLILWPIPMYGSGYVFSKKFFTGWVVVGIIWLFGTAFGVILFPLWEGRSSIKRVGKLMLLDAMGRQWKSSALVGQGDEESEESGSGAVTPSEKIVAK
Method: (§1) Radiolabelled [^14C]-urea (55.0 mCi mmol^−1) was purchased from Moravek Biochemicals, Brea, CA, USA. [^14C]-urea uptake assays were performed in A. nidulans germinating conidiospores. Initial velocities were measured after 2 min of incubation at 37 °C with a [^14C]-urea concentration of 1.0 μΜ, and are expressed as % of the wt value, in pmoles min^−1/10^7 conidiospores. Apparent Km/i values were obtained directly by performing and analyzing [^14C]-urea uptakes (Prism 3.02: Graph Pad Software, Inc., San Diego, CA, USA), from IC50 values in the presence of various concentrations (0.5–3000 μM) of non-labelled substrates, as previously described. […] The Ki values are then calculated from IC50 values, based on the equation: Ki = IC50/[1 + (S/Km)] […] Transport assays were carried out in at least three independent experiments, in triplicates for each concentration or time point. Background uptake values were corrected by subtracting values measured in the deleted mutants (UreAΔ).

UreA T282S = target: T2, UreA T282S (Aspergillus nidulans, UniProt Q5BGB2, T282S); assay: [14C]-urea uptake in germinating conidiospores, UreA T282S mutant; details: for fold drop in affinity: allele T282S vs wt; for Vo (%) initial uptake rate: allele T282S, % of wt, [14C]-urea 1.0 μM, 2 min, 37 °C
T2 sequence (Q5BGB2 1-693 T282S): T1 sequence (Q5BGB2 1-693 W84Y)
Method: as §1

UreA T282A = target: T3, UreA T282A (Aspergillus nidulans, UniProt Q5BGB2, T282A); assay: [14C]-urea uptake in germinating conidiospores, UreA T282A mutant; details: for Vo (%) initial uptake rate: allele T282A, % of wt, [14C]-urea 1.0 μM, 2 min, 37 °C
T3 sequence (Q5BGB2 1-693 T282A): T1 sequence (Q5BGB2 1-693 W84Y)
Method: as §1

UreA W84A = target: T4, UreA W84A (Aspergillus nidulans, UniProt Q5BGB2, W84A); assay: [14C]-urea uptake in germinating conidiospores, UreA W84A mutant
T4 sequence (Q5BGB2 1-693 W84A): T1 sequence (Q5BGB2 1-693 W84Y)
Method: as §1

UreA W84F = target: T5, UreA W84F (Aspergillus nidulans, UniProt Q5BGB2, W84F); assay: [14C]-urea uptake in germinating conidiospores, UreA W84F mutant
T5 sequence (Q5BGB2 1-693 W84F): T1 sequence (Q5BGB2 1-693 W84Y)
Method: as §1

UreA wt = target: T6, UreA wt (Aspergillus nidulans, UniProt Q5BGB2); assay: [14C]-urea uptake in germinating conidiospores, wt UreA; type: cell-based; details: allele wt; for Ki: inhibition of [14C]-urea uptake, Ki from IC50
T6 sequence (Q5BGB2 1-693): T1 sequence (Q5BGB2 1-693 W84Y)
Method: as §1

UreA W82Y = target: T7, UreA W82Y (Aspergillus nidulans, UniProt Q5BGB2, W82Y); assay: [14C]-urea uptake in germinating conidiospores, UreA W82Y mutant; details: for Vo (%) initial uptake rate: allele W82Y, % of wt, [14C]-urea 1.0 μM, 2 min, 37 °C
T7 sequence (Q5BGB2 1-693 W82Y): T1 sequence (Q5BGB2 1-693 W84Y)
Method: as §1

UreA N279A = target: T8, UreA N279A (Aspergillus nidulans, UniProt Q5BGB2, N279A); assay: [14C]-urea uptake in germinating conidiospores, UreA N279A mutant
T8 sequence (Q5BGB2 1-693 N279A): T1 sequence (Q5BGB2 1-693 W84Y)
Method: as §1

UreA N279Q = target: T9, UreA N279Q (Aspergillus nidulans, UniProt Q5BGB2, N279Q); assay: [14C]-urea uptake in germinating conidiospores, UreA N279Q mutant; details: for Vo (%) initial uptake rate: allele N279Q, % of wt, [14C]-urea 1.0 μM, 2 min, 37 °C
T9 sequence (Q5BGB2 1-693 N279Q): T1 sequence (Q5BGB2 1-693 W84Y)
Method: as §1

NC(N)=O = assay: cells, lysate or membranes; details: 37.0 °C
Method: [^14C]-urea uptake assays were performed in A. nidulans germinating conidiospores. Initial velocities were measured after 2 min of incubation at 37 °C with a [^14C]-urea concentration of 1.0 μΜ, and are expressed as % of the wt value, in pmoles min^−1/10^7 conidiospores. Apparent Km/i values were obtained directly by performing and analyzing [^14C]-urea uptakes (Prism 3.02: Graph Pad Software, Inc., San Diego, CA, USA), from IC50 values in the presence of various concentrations (0.5–3000 μM) of non-labelled substrates, as previously described [4, 16, 58]. […] The Ki values are then calculated from IC50 values, based on the equation: Ki = IC50/[1 + (S/Km)] […] Transport assays were carried out in at least three independent experiments, in triplicates for each concentration or time point. Background uptake values were corrected by subtracting values measured in the deleted mutants (UreAΔ). Standard deviation was <20%.

CC(N)=O [Acetamide, acetamide]
affinity relative to wt (in words) (UreA W82F): augmented | Ki (UreA W82F; allele W82F, ref Sanguinetti et al. (2014) [8], read-out: Acetamide Ki): 198 ± 12 µM | Ki (UreA W84Y): > 1000 µM | Ki (UreA T282S): 290 ± 12 µM | Ki (UreA T282A): 361 ± 85 µM | fold decrease in affinity (UreA T282A; allele T282A vs wt): 1.6 fold | Ki (UreA W84A): 489 ± 39 µM | Ki (UreA W84F): 524 ± 42 µM | Ki (UreA wt; read-out: Acetamide Ki): 237 ± 14 µM | Ki (UreA W82Y): 101 ± 16 µM | Ki (UreA N279A): 51 ± 5 µM | Ki fold lower as compared to the wt (UreA N279A; allele N279A vs wt): ≈ 4.6 fold | Ki (UreA N279Q): 87 ± 9 µM | Ki fold lower as compared to the wt (UreA N279Q; allele N279Q vs wt): ≈ 2.7 fold

NC(N)=S [Thiourea, 2-thiourea]
affinity relative to wt (in words) (UreA W82F): augmented | Ki (UreA W82F; allele W82F, ref Sanguinetti et al. (2014) [8], read-out: Thiourea Ki): 447 ± 24 µM | Ki (UreA W84Y): > 2000 µM | Ki (UreA T282S): > 1000 µM | fold drop in affinity (UreA T282S): > 2 fold | Ki (UreA T282A): > 1000 µM | fold decrease in affinity (UreA T282A; allele T282A vs wt): 2 fold | Ki (UreA W84A): > 2000 µM | Ki (UreA W84F): > 2000 µM | Ki (UreA wt; read-out: Thiourea Ki): 528 ± 42 µM | Ki (UreA W82Y): > 1000 µM | Ki (UreA N279A): > 1000 µM | Ki (UreA N279Q): 813 ± 59 µM | affinity fold lower than that of the wt (UreA N279Q; allele N279Q vs wt): 1.5 fold

NC(N)=O [Urea, urea]
affinity relative to wt (in words) (UreA W82F): unchanged | Vo (%) initial uptake rate (UreA W82F; allele W82F, % of wt, ref Sanguinetti et al. (2014) [8]): 50 ± 8% | Km (UreA W82F; allele W82F, ref Sanguinetti et al. (2014) [8]): 23 ± 5 µM | Vo (%) initial uptake rate (UreA W84Y; allele W84Y, % of wt, [14C]-urea 1.0 μM, 2 min, 37 °C): 46 ± 4% | fold drop in affinity (UreA T282S): 5 fold | Vo (%) initial uptake rate (UreA T282S): 65 ± 3% | Vo (%) initial uptake rate (UreA T282S; listed as urea): ≈ 65% | Km fold lower than that of the wt (UreA T282A; allele T282A vs wt): 3 fold | Vo (%) initial uptake rate (UreA T282A): 14 ± 2% | Vo (%) initial uptake rate (UreA T282A; listed as urea): 14% | Vo (%) initial uptake rate (UreA W84A; allele W84A, % of wt, [14C]-urea 1.0 μM, 2 min, 37 °C): 20 ± 2% | Vo (%) initial uptake rate (UreA W84F; allele W84F, % of wt, [14C]-urea 1.0 μM, 2 min, 37 °C): 15 ± 2% | Vo (%) initial uptake rate (UreA wt; % of wt, [14C]-urea 1.0 μM, 2 min, 37 °C): 100% | drop in urea affinity (UreA W82Y; allele W82Y vs wt): ≈ 50% | Vo (%) initial uptake rate (UreA W82Y): 25 ± 2% | Vo (%) initial uptake rate (UreA W82Y; listed as urea): ≈ 25% | Vo (%) initial uptake rate (UreA N279A; allele N279A, % of wt, [14C]-urea 1.0 μM, 2 min, 37 °C): 100 ± 5% | affinity fold lower than that of the wt (UreA N279Q; allele N279Q vs wt): 3.5 fold | Vo (%) initial uptake rate (UreA N279Q): 70 ± 3% | Vo (%) initial uptake rate (UreA N279Q; listed as urea): ≈ 70%

N=C(N)N [guanidine]
affinity relative to wt (in words) (UreA W82F): augmented

UreA N279A (Aspergillus nidulans FGSC A4; N279A)
Km (NC(N)=O; other: allele N279A): 30 ± 3 µM

UreA N279Q (Aspergillus nidulans FGSC A4; N279Q)
Km (NC(N)=O; other: allele N279Q): 91 ± 6 µM

UreA T282A (Aspergillus nidulans FGSC A4; T282A)
Km (NC(N)=O; other: allele T282A): 80 ± 27 µM

UreA T282S (Aspergillus nidulans FGSC A4; T282S)
Km (NC(N)=O; other: allele T282S): 130 ± 22 µM

UreA W82Y (Aspergillus nidulans FGSC A4; W82Y)
Km (NC(N)=O; other: allele W82Y): 42 ± 5 µM

UreA W84A (Aspergillus nidulans FGSC A4; W84A)
Km (NC(N)=O; other: allele W84A): 193 ± 12 µM

UreA W84F (Aspergillus nidulans FGSC A4; W84F)
Km (NC(N)=O; other: allele W84F): 96 ± 13 µM

UreA W84Y (Aspergillus nidulans FGSC A4; W84Y)
Km (NC(N)=O; other: allele W84Y): 159 ± 11 µM
